According to patent US6355799B1, “Substituted benzene compounds, process for their preparation, and herbicidal and defoliant compositions containing them” (ISK Americas Incorporated, priority 1997, dated 2002):

How the values were obtained:
Format in all cases: in vivo
[1] = tested on: redroot pigweed (Amaranthus retroflexus, AMARE); assay: Pre-emerge test, greenhouse herbicide activity screening; conditions: pre-emerge, 14 days after application, rating scale 0-100
Procedure, shortened: (§1)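 Compounds in acetone were track-sprayed at 15-1000 g ai/ha (187 l/ha) on sandy loam pots: pre-emerge one day after seeding, post-emerge at 2-3 leaf stage with 0.25% v/v non-ionic surfactant. Phytotoxicity was rated 14 days later on a 0 (no damage) to 100 (complete death) scale.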

[2] = tested on: sicklepod (Cassia obtusifolia, CASOB); assay: as above; conditions: pre-emerge, 14 days after application, rating scale 0-100
From the text: (§2) A standard greenhouse herbicide activity screening system was used to evaluate the herbicidal efficacy and crop safety of these test compounds. Seven broadleaf weed species including redroot pigweed (Amaranthus retroflexus, AMARE, velvetleaf (Abutilon theophrasti, ABUTH), sicklepod (Cassia obtusifolia, CASOB), ivyleaf morningglory (Ipomoea hederacea, IPOHE), lambsquarters (Chenopodium album, CHEAL), common ragweed (Ambrosia artemisizfolia L., AMBEL), and cocklebur (Xanthium strumarium, XANST) were used as test species. Four grass weed species including green foxtail (Setaria viridis, SETVI), barnyardgrass (Echinochloa crus-galli, ECHCG), johnsongrass (Sorghum halepense, SORHA), and large crabgrass (Digitaria sanguinalis, DIGSA) were also used. In addition, three crop species, field corn (Zea mays L., var. Dekalb 535, CORN), soybean (Glycine max L., var. Pella 86, SOY), and is upland rice (Oryza sp., var. Tebonnet, RICE) were included.
(§3) All plants were grown in 10 cm square plastic pots which were filled with a sandy loam soil mix. For pre-emerge tests, seeds were planted one day prior to application of the test compounds. For post-emerge tests, seeds were planted 8-21 days prior to the test to allow emergence and good foliage development prior to application of the test substances. At the time of the post-emerge application, plants of all species were usually at the 2-3 leaf stage of development.
(§4) All test compounds Were dissolved in acetone and applied to the test units in a volume of 187 l /ha. Test materials were applied at rates ranging from 15 g ai/ha to 1000 g ai/ha using a track sprayer equipped with a TJ8001E even flow flat fan spray nozzle. Plants were arranged on a shelf so that the top of the canopy (post-emerge) or top of the soil surface (pre-emerge) was 40-45 cm below the nozzle. Pressurized air was used to force the test solution through the nozzle as it was mechanically advanced (via electrically driven chain drive) over the top of all test plants/pots. This application simulates a typical commercial field herbicide application.
(§5) In the post-emerge test, a commercial non-ionic surfactant was also included (0.25% v/v) to enhance wetting of the leaf surfaces of target plants. Immediately after application, test units of the pre-emerge applications were watered at the soil surface to incorporate the test materials. Subsequently, these test units were bottom-watered. Post-emerge test units were always bottom-watered.
(§6) At 14 days after application of the test materials, phytotoxicity ratings were recorded. A rating scale of 0-100 was used as previously described in Research Methods in Weed Science, 2nd edition, B. Truelove, Ed., Southern Weed Science Society, Auburn University, Auburn, Ala. 1977. Briefly, “0” corresponds to no damage and “100” corresponds to complete death of all plants in the test unit. This scale was used both to determine efficacy against weed species and damage to crop species. Herbicide activity data for various compounds of this invention, which are shown by compound No. in Tables 1-8, are shown in Tables 11 and 12.

[3] = tested on: velvetleaf (Abutilon theophrasti, ABUTH); assay: as above; conditions: pre-emerge, 14 days after application, rating scale 0-100
From the text: as §2, §3, §4, §5, §6

[4] = tested on: barnyardgrass (Echinochloa crus-galli, ECHCG); assay: as above; conditions: pre-emerge, 14 days after application, rating scale 0-100
From the text: as §2, §3, §4, §5, §6

[5] = tested on: lambsquarters (Chenopodium album, CHEAL); assay: as above; conditions: pre-emerge, 14 days after application, rating scale 0-100
From the text: as §2, §3, §4, §5, §6

[6] = tested on: large crabgrass (Digitaria sanguinalis, DIGSA); assay: as above; conditions: pre-emerge, 14 days after application, rating scale 0-100
From the text: as §2, §3, §4, §5, §6

[7] = tested on: ivyleaf morningglory (Ipomoea hederacea, IPOHE); assay: as above; conditions: pre-emerge, 14 days after application, rating scale 0-100
From the text: as §2, §3, §4, §5, §6

[8] = tested on: green foxtail (Setaria viridis, SETVI); assay: as above; conditions: pre-emerge, 14 days after application, rating scale 0-100
From the text: as §2, §3, §4, §5, §6

[9] = tested on: upland rice (Oryza sp., var. Tebonnet, RICE); assay: Pre-emerge test, crop safety; conditions: pre-emerge, 14 days after application, rating scale 0-100
Procedure, shortened: (§7)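 Plants grown in 10 cm pots of sandy loam mix received acetone-dissolved compounds through a moving flat-fan nozzle. Doses ranged from 15 to 1000 g ai/ha. Pre-emerge pots were seeded one day earlier, post-emerge pots 8–21 days earlier. Fourteen days on, each pot was graded 0–100 for damage.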

[10] = tested on: field corn (Zea mays L., var. Dekalb 535, CORN); assay: Pre-emerge test, crop safety; conditions: pre-emerge, 14 days after application, rating scale 0-100
Procedure, shortened: as §7

[11] = tested on: sicklepod (Cassia obtusifolia, CASOB); assay: Post-emerge test, greenhouse herbicide activity screening; conditions: post-emerge, 14 days after application, rating scale 0-100
From the text: as §2, §3, §4, §5, §6

[12] = tested on: velvetleaf (Abutilon theophrasti, ABUTH); assay: as above; conditions: post-emerge, 14 days after application, rating scale 0-100
From the text: as §2, §3, §4, §5, §6

[13] = tested on: barnyardgrass (Echinochloa crus-galli, ECHCG); assay: as above; conditions: post-emerge, 14 days after application, rating scale 0-100
From the text: as §2, §3, §4, §5, §6

[14] = tested on: lambsquarters (Chenopodium album, CHEAL); assay: as above; conditions: post-emerge, 14 days after application, rating scale 0-100
From the text: as §2, §3, §4, §5, §6

[15] = tested on: large crabgrass (Digitaria sanguinalis, DIGSA); assay: as above; conditions: post-emerge, 14 days after application, rating scale 0-100
From the text: as §2, §3, §4, §5, §6

[16] = tested on: ivyleaf morningglory (Ipomoea hederacea, IPOHE); assay: as above; conditions: post-emerge, 14 days after application, rating scale 0-100
From the text: as §2, §3, §4, §5, §6

[17] = tested on: redroot pigweed (Amaranthus retroflexus, AMARE); assay: as above; conditions: post-emerge, 14 days after application
From the text: as §2, §3, §4, §5, §6

[18] = tested on: green foxtail (Setaria viridis, SETVI); assay: as above; conditions: post-emerge, 14 days after application, rating scale 0-100
From the text: as §2, §3, §4, §5, §6

[19] = tested on: upland rice (Oryza sp., var. Tebonnet, RICE); assay: Post-emerge test, crop safety; conditions: post-emerge, 14 days after application, rating scale 0-100
Procedure, shortened: as §1

[20] = tested on: field corn (Zea mays L., var. Dekalb 535, CORN); assay: Post-emerge test, crop safety; conditions: post-emerge, 14 days after application, rating scale 0-100
Procedure, shortened: as §1

COc1c(Cl)cc(F)c(-n2c(=O)cc(C(F)(F)F)n(C)c2=O)c1NNC(=O)c1ccc(F)cc1F [15-4]
90: phytotoxicity rating CORN ([10]; 63 g ai/ha) | Post-emerge Herbicidal Activity ECHCG (phytotoxicity rating) ([13]; 250 g ai/ha) | Post-emerge Herbicidal Activity CORN (crop damage rating) ([20]; 250 g ai/ha)
100: phytotoxicity rating AMARE ([1]; 63 g ai/ha) | phytotoxicity rating AMARE ([1]; 250 g ai/ha) | phytotoxicity rating CASOB ([2]; 63 g ai/ha) | phytotoxicity rating CASOB ([2]; 250 g ai/ha) | phytotoxicity rating ABUTH ([3]; 63 g ai/ha) | phytotoxicity rating ABUTH ([3]; 250 g ai/ha) | phytotoxicity rating ECHCG ([4]; 250 g ai/ha) | phytotoxicity rating CHEAL ([5]; 63 g ai/ha) | phytotoxicity rating CHEAL ([5]; 250 g ai/ha) | phytotoxicity rating DIGSA ([6]; 63 g ai/ha) | phytotoxicity rating DIGSA ([6]; 250 g ai/ha) | phytotoxicity rating IPOHE ([7]; 63 g ai/ha) | phytotoxicity rating IPOHE ([7]; 250 g ai/ha) | phytotoxicity rating SETVI ([8]; 63 g ai/ha) | phytotoxicity rating SETVI ([8]; 250 g ai/ha) | phytotoxicity rating RICE ([9]; 250 g ai/ha) | phytotoxicity rating CORN ([10]; 250 g ai/ha) | Post-emerge Herbicidal Activity ABUTH (phytotoxicity rating) ([12]; 63 g ai/ha) | Post-emerge Herbicidal Activity ABUTH (phytotoxicity rating) ([12]; 250 g ai/ha) | Post-emerge Herbicidal Activity CHEAL (phytotoxicity rating) ([14]; 63 g ai/ha) | Post-emerge Herbicidal Activity CHEAL (phytotoxicity rating) ([14]; 250 g ai/ha) | Post-emerge Herbicidal Activity IPOHE (phytotoxicity rating) ([16]; 63 g ai/ha) | Post-emerge Herbicidal Activity IPOHE (phytotoxicity rating) ([16]; 250 g ai/ha) | Post-emerge Herbicidal Activity AMARE (phytotoxicity rating) ([17]; 250 g ai/ha, rating scale 0-100)
50: Post-emerge Herbicidal Activity CASOB (phytotoxicity rating) ([11]; 63 g ai/ha) | Post-emerge Herbicidal Activity SETVI (phytotoxicity rating) ([18]; 63 g ai/ha) | Post-emerge Herbicidal Activity CORN (crop damage rating) ([20]; 63 g ai/ha)
80: phytotoxicity rating ECHCG ([4]; 63 g ai/ha) | phytotoxicity rating RICE ([9]; 63 g ai/ha) | Post-emerge Herbicidal Activity CASOB (phytotoxicity rating) ([11]; 250 g ai/ha) | Post-emerge Herbicidal Activity SETVI (phytotoxicity rating) ([18]; 250 g ai/ha)
30: Post-emerge Herbicidal Activity DIGSA (phytotoxicity rating) ([15]; 63 g ai/ha)
40: Post-emerge Herbicidal Activity ECHCG (phytotoxicity rating) ([13]; 63 g ai/ha)
95: Post-emerge Herbicidal Activity RICE (crop damage rating) ([19]; 250 g ai/ha)
70: Post-emerge Herbicidal Activity DIGSA (phytotoxicity rating) ([15]; 250 g ai/ha) | Post-emerge Herbicidal Activity AMARE (phytotoxicity rating) ([17]; 63 g ai/ha, rating scale 0-100 (0 no damage, 100 complete death)) | Post-emerge Herbicidal Activity RICE (crop damage rating) ([19]; 63 g ai/ha)
